Patent US5716627A, “Skin care compositions containing fatty acid amides, azoles, and retinol or retinyl ester” (Elizabeth Arden Co., Division of Conopco, Inc., priority 1996, dated 1998)
Entries after “also recorded” stand apart in the source; their conditions may differ. Like-named read-outs stand apart in the source and are kept apart here.

How the values were obtained:
Human keratinocytes = assay: 3H-thymidine incorporation by cultured keratinocytes (keratinocyte proliferation); type: cell-based; settings: for activation at 0.0025 µM: 2.5×10^-9 M RA
Procedure: Human keratinocytes, isolated from neonatal foreskin by trypsin treatment were grown in Dulbecco Modification Eagle (DME) Hams F12 (1:1) medium/10% fetal calf serum in the presence of irradiated 3T3 mouse fibroblasts for establishing dividing keratinocyte colonies. Cells were grown under the above condition until their second passage and kept frozen for future use. […] On day 7, when the cells were 80-90% confluent, they were trypsinized and plated in the serum-free medium for the various experiments.
The incorporation of ^3 H-thymidine by cultured keratinocytes was used as an assay of keratinocyte proliferation. Thymidine is one of four deoxynucleosides which are the monomeric units of DNA, the universal library of genetic information in the animal kingdom. Prior to cell division of a somatic cell such as a keratinocyte, the complete genome of the cell undergoing cell division is replicated. This involves large scale DNA synthesis by the cell and enables both daughter cells to receive identical copies of the genetic material. When ^3 H-thymidine is included in the culture media of keratinocytes which are synthesizing DNA in preparation for cell division then the labelled nucleoside is incorporated into the newly synthesized DNA. The extent of incorporation of ^3 H-thymidine into a population of cells is proportional to the rate of DNA synthesis by this population of cells and therefore an indication of their cellular proliferation.
Keratinocytes (that were cultured as described above) were plated in 24 well plates at a density of 40,000 cells per well in 1 ml media. After incubation for four days or until the cells were 60-70% confluent, the media was changed. Test compounds were added (in triplicate) to the wells 24 hours after the media change, and four hours later 1 μCi ^3 H-Thymidine in 50 μl media was added per well. Cells were incubated for a further 24 hours. Media was removed from the cells, 10% ice cold trichloroacetic acid (TCA) added and plates were incubated on ice for 30 minutes. Cells were washed five times with 5% TCA and allowed to dissolve in 500 μl 0.1M NaOH for at least one hour (usually overnight). The preparations were neutralized with 0.1M HCl; 50 μl of the cell preparation was used to determine total protein content. Disintegrations per minute (DPM) from ^3 H labelling of DNA was determined by liquid scintillation counting of 900 μl of the cell preparation. Thymidine incorporation results were expressed as DPM/μg protein.

TGase I = assay: Transglutaminase (TGase I) ELISA in cultured keratinocytes, normalized to DNA content (keratinocyte differentiation); type: cell-based, human; settings: for Mean TGase/DNA X 10^-4 ± S.D.: n = 3; for mean TGase/DNA × 10^4 ± s.d: Table 3B
Procedure: Human keratinocytes, isolated from neonatal foreskin by trypsin treatment were grown in Dulbecco Modification Eagle (DME) Hams F12 (1:1) medium/10% fetal calf serum in the presence of irradiated 3T3 mouse fibroblasts for establishing dividing keratinocyte colonies. Cells were grown under the above condition until their second passage and kept frozen for future use. Frozen second passage keratinocytes were thawed and plated into the above medium and grown for five days before they were switched to a serum-free MCDB 153-based medium keratinocyte growth medium (KGM) from Clonetics Corporation, San Diego, Calif., containing 0.15 mM Ca, or keratinocyte serum-free media (KSFM) from GIBCO containing 0.09 mM Ca). On day 7, when the cells were 80-90% confluent, they were trypsinized and plated in the serum-free medium for the various experiments.
During the process of terminal differentiation in the epidermis, a 15 nm thick layer of protein, known as the cornified envelope (CE) is formed on the inner surface of the cell periphery. The CE is composed of numerous distinct proteins which have been cross-linked together by the formation of N^ε -(γ-glutamyl) lysine isodipeptide bonds catalyzed by the action of at least two different transglutaminases (TGases) expressed in the epidermis. TGase I is expressed in abundance in the differentiated layers of the epidermis, especially the granular layer, but is absent in the undifferentiated basal epidermis. Thus TGase I is a useful marker of epidermal keratinocyte differentiation with high TGase I levels indicating a more differentiated state. An ELISA based TGase I assay, using a TGase I antibody, was used to assess the state of differentiation of the cultured keratinocytes in the examples that follow.
Keratinocytes (cultured as described above) were plated in 96 well plates at a density of 3,000 cells per well in 200 μl media. After incubation for four days the media was changed to media containing test compounds (six replicates per test). The cells were cultured for a further 72 hours after which time the media was aspirated and the plates stored at -70° C. Plates were removed from the freezer, and the cells washed with PBS. 100 μl sterile water was added and the cells were freeze fractured by freezing at -70° C. then thawing. The cells were incubated for one hour at room temperature (R/T) with PBS/3% BSA (wash buffer, bovine serum albumin), then rinsed with a fresh aliquot of wash buffer. Cells were incubated with 50 μl of primary antibodies monoclonal anti-human transglutaminase (IgG) obtained from Amersham (mouse) diluted 1:300 in wash buffer for one hour, 37° C. then rinsed two times with wash buffer. Cells were then incubated with 50 μl of secondary antibody (Feb fragment, peroxidase conjugated anti-mouse IgG obtained from Amersham) diluted 1:200 in wash buffer for one hour at 37° C., then rinsed two times with wash buffer. Cells were incubated with substrate solution (4 mg o-phenylene diamine and 3.3 μl 30% H2 O2 in 10 ml 0.1M citrate buffer pH 5.0) for five minutes, R/T, in darkness (under aluminum foil). The reaction was stopped by the addition of 50 μl 4N H2 SO4. The absorbance of samples was read at 492 nm in the plate reader. Out of the six replicates, four were treated with both antibodies, two were treated only with the secondary antibody (i.e., to determine background binding of enzyme conjugated Ab). TGase levels were determined by subtracting background from the readings from each treatment and determining mean ±s.d. for the replicates exposed to both Ab.
The level of TGase-1 detected after treatment of the cells could be influenced by cell number, i.e., the greater the number of cells the greater the level of TGase-1 detected. The level of TGase-1 was normalized to DNA content of the cells in the same well thus eliminating variation due to differences in cell number. […]

[1] = Examples 1-4, overall conclusion

For `CC1=C(/C=C/C(C)=C/C=C/C(C)=C/C(=O)O)C(C)(C)CCC1` [RA, retinoic acid], the “effect on keratinocyte proliferation (in words)” value (Human keratinocytes; Example 1, 2.5×10^-7 M, 2.5×10^-8 and 2.5×10^-9 M, vs ethanol control and retinol) was “significantly increased keratinocyte proliferation over both the ethanol control and each of the 2.5×10^-7 M, 2.5×10^-8 M and 2.5×10^-9 M retinol treatments; also recorded: dose dependant manner”, the “effect on keratinocyte proliferation (in words)” value (Human keratinocytes; [1]) was “increased keratinocyte proliferation” and the activity at 0.25 µM (Human keratinocytes; Homo sapiens, Keratinocyte, 24 h, Table 1A, 2.5 × 10^-7 M, 24 hours, read-out: Thymidine incorporation (% control)) was 118%. For the same compound, the activity at 0.025 µM (Human keratinocytes; Homo sapiens, Keratinocyte, 24 h, Table 1A, 2.5 × 10^-8 M, 24 hours, read-out: Thymidine incorporation (% control)) was 128%, the activity at 0.0025 µM (Human keratinocytes; Homo sapiens, Keratinocyte, 24 h, Table 1A, 2.5 × 10^-9 M, 24 hours, read-out: Thymidine incorporation (% control)) was 122% and the activity at 0.0025 µM (Human keratinocytes; Homo sapiens, Keratinocyte, 24 h, Table 2A, 2.5 × 10^-9 M RA or ROH, with 10^-8 M LADEA and/or 10^-9 M Bifonazole where named, 24 hours, read-out: Thymidine incorporation (% control)) was 127%. It also gave an activity at 0.25 µM (Human keratinocytes; Homo sapiens, Keratinocyte, 24 h, Table 3A, RA at 2.5 × 10^7 M [sic], read-out: Thymidine incorporation (% control)) of 130%, an activation at 0.0025 µM (Human keratinocytes; Homo sapiens, Keratinocyte, read-out: increase in keratinocyte thymidine incorporation / proliferation over the ethanol control, Example 2, or 2.5×10^-9 M retinol+10^-8 M linoleamide-DEA+10^-9 M bifonazole) of 27% and an activation at 0.25 µM (Human keratinocytes; Homo sapiens, Keratinocyte, read-out: increase in keratinocyte thymidine incorporation / proliferation over the ethanol control, Example 3, 2.5×10^-7 M RA, or 2.5×10^-8 M retinol+10^-8 M linoleamide-DEA+10^-9 M climbazole) of 30%. For the same compound, the activation at 0.0025 µM (Human keratinocytes; Homo sapiens, Keratinocyte, read-out: increase in keratinocyte thymidine incorporation / proliferation over the ethanol control, Example 4, or 2.5×10^-9 M retinol+10^-8 M linoleamide-MEA+10^-8 M clotrimazole) was 28%, the “mean Thymidine incorp./μg protein ± s.d” value (Human keratinocytes; Table 1A, 2.5 × 10^-7 M, 24 hours, n = 3) was 2475 ± 116 DPM/μg protein and the “mean Thymidine incorp./μg protein ± s.d” value (Human keratinocytes; Table 1A, 2.5 × 10^-8 M, 24 hours, n = 3) was 2686 ± 72 DPM/μg protein. The “mean Thymidine incorp./μg protein ± s.d” value (Human keratinocytes; Table 1A, 2.5 × 10^-9 M, 24 hours, n = 3) was 2556 ± 80 DPM/μg protein, the “mean Thymidine incorp. μg protein ± s.d” value (Human keratinocytes; Table 2A, 2.5 × 10^-9 M RA or ROH, with 10^-8 M LADEA and/or 10^-9 M Bifonazole where named, 24 hours, n = 3) was 5569 ± 248 DPM/μg protein and the “mean Thymidine incorp/μg protein ± s.d” value (Human keratinocytes; Table 3A, RA at 2.5 × 10^7 M [sic], n = 3) was 4845 ± 95 DPM/μg protein. For the same compound, the “effect on transglutaminase level / keratinocyte differentiation (in words)” value (TGase I; Example 1, 2.5×10^-7 M, 2.5×10^-8 M and 2.5×10^-9 M) was “decreased keratinocyte differentiation over both the ethanol control and each of the retinol treatments; also recorded: dose dependent”, the “effect on keratinocyte TG1 level / differentiation (in words)” value (TGase I; Example 2, 2.5×10^-8 M RA or retinol, 10^-8 M LAMEA, 10^-8 M bifonazole, 72 hour) was “very effective at repressing keratinocyte TG1 levels” and the “effect on keratinocyte TG1 level / differentiation (in words)” value (TGase I; Example 3, 2.5×10^-7 M RA, 2.5×10^-9 M retinol with 10^-8 M LADEA and/or climbazole, 72 hour) was “very effective at repressing keratinocyte TG1 levels”. The “effect on keratinocyte differentiation (in words)” value (TGase I; [1]) was “decreased keratinocyte differentiation”, the “TGase/DNA (% Control)” value (TGase I; Table 1B, 2.5 × 10^-7 M, 72 hours, 0.25 µM) was 7% and the “Mean TGase/DNA X 10^-4 ± S.D.” value (TGase I; Table 1B, 2.5 × 10^-7 M, 72 hours) was 0.16 ± 0.11 X 10^-4. The “TGase/DNA (% Control)” value (TGase I; Table 1B, 2.5 × 10^-8 M, 72 hours, 0.025 µM) was 55%, the “Mean TGase/DNA X 10^-4 ± S.D.” value (TGase I; Table 1B, 2.5 × 10^-8 M, 72 hours) was 1.34 ± 0.40 X 10^-4 and the “TGase/DNA (% Control)” value (TGase I; Table 1B, 2.5 × 10^-9 M, 72 hours, 0.0025 µM) was 77%. For the same compound, the “Mean TGase/DNA X 10^-4 ± S.D.” value (TGase I; Table 1B, 2.5 × 10^-9 M, 72 hours) was 1.87 ± 0.49 X 10^-4, the “TGase/DNA (% Control)” value (TGase I; Table 2B and Example 2B text, 2.5×10^-8 M RA or retinol, 10^-8 M LAMEA, 10^-8 M bifonazole where named, 72 hour) was 13% and the “mean TGase/DNA × 10^-4 ± s.d” value (TGase I; Table 2B, 2.5 × 10^8 M [sic] RA or ROH, 10^8 M LA-MEA, 10^8 M Bifonazole where named, 72 hour, n = 6) was 0.017 ± 0.010 × 10^-4. For the same compound, the “TGase/DNA (% Control)” value (TGase I; Table 3B and Example 3B, 2.5×10^-9 M RA or ROH, with 10^-8 M LADEA and/or 10^-8 M climbazole where named, 72 hour) was 55%, the “TGase/DNA (% Control)” value (TGase I; Table 3B and Example 3B, RA at 2.5×10^-7 M (table: 2.5 × 10^7 M), 72 hour, 0.25 µM) was 29% and the “mean TGase/DNA × 10^4 ± s.d” value (TGase I; 2.5 × 10^9 M [sic] RA or ROH, with 10^8 M LA-DEA and/or 10^8 M Climbazole where named, 72 hour, n = 6) was 0.84 ± 0.59 × 10^4. The “mean TGase/DNA × 10^4 ± s.d” value (TGase I; RA at 2.5 × 10^7 M [sic], 72 hour, n = 6) was 0.44 ± 0.71 × 10^4.
